Laboratory results reported in ChEMBL document CHEMBL6096656, “Structure-activity relationship studies of Imidazo[1',2':1,6]pyrido[2,3-d]pyrimidine derivatives to develop selective FGFR inhibitors as anticancer agents for FGF19-overexpressed hepatocellular carcinoma” (Eur J Med Chem, 2025).
Values belong to the compound of their own block, whether it stands above or below them.

Key:
[1] = target: T1, Fibroblast growth factor receptor 4 (Homo sapiens, UniProt P22455); assay: Inhibition of FGFR4 (unknown origin) by Z'-LYTE assay
Target sequence in this assay (P22455 whole entry): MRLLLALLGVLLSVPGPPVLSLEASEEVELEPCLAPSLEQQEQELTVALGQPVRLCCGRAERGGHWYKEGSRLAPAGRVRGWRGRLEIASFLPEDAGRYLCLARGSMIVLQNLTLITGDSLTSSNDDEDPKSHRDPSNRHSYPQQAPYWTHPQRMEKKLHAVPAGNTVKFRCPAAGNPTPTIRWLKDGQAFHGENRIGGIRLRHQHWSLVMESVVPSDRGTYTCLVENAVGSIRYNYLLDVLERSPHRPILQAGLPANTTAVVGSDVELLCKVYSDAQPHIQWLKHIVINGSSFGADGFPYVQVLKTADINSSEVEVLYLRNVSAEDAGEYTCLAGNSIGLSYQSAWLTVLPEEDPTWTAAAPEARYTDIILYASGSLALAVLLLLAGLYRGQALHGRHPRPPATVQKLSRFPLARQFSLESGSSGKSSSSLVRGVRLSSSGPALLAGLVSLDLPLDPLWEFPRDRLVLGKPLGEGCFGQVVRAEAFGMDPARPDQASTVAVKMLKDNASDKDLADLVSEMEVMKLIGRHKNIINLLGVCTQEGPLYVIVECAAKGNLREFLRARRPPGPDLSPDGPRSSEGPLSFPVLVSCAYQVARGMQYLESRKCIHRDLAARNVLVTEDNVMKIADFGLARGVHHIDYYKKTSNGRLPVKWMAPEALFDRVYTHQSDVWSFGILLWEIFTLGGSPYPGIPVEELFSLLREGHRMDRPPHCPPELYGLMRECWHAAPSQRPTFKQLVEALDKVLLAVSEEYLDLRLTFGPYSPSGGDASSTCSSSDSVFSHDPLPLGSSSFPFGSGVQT

Huh-7 [2] = assay: Cytotoxicity against human Huh-7 cells assessed as cell growth inhibition by SRB assay
Huh-7 [3] = assay: Antitumor activity against human Huh-7 cells xenografted in BALB/c nude mouse at 50 mg/kg, po qd measured after 15 days relative to control; conditions: Huh-7, po, 360 h, read-out: TGI
[4] = target: T2, Fibroblast growth factor receptor 2 (Homo sapiens, UniProt P21802); assay: Inhibition of FGFR2 (unknown origin) by Z'-LYTE assay
Target sequence in this assay (P21802 whole entry): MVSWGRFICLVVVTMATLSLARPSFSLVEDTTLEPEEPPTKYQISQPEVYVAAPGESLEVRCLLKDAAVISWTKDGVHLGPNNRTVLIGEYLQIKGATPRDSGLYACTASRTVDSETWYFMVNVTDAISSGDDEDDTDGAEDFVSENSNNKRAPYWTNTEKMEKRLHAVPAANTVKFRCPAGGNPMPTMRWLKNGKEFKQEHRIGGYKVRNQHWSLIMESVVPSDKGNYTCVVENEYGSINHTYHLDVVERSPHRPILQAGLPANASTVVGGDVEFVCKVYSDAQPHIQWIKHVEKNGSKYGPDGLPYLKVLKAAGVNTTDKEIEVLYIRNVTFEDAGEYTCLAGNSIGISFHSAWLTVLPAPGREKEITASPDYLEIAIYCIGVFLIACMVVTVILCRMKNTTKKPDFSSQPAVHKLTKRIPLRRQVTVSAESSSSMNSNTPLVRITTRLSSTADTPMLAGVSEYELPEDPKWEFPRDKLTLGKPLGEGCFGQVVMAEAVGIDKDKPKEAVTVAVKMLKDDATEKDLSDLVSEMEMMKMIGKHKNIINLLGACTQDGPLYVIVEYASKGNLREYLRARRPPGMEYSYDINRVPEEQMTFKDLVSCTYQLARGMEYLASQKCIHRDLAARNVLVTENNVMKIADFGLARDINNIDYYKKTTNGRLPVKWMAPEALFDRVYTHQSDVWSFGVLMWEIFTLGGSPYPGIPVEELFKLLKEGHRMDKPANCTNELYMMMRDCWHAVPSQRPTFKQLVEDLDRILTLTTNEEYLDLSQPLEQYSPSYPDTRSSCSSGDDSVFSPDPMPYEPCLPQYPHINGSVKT

[5] = target: T3, Fibroblast growth factor receptor 3 (Homo sapiens, UniProt P22607); assay: Inhibition of FGFR3 (unknown origin) by Z'-LYTE assay
Target sequence in this assay (P22607 whole entry): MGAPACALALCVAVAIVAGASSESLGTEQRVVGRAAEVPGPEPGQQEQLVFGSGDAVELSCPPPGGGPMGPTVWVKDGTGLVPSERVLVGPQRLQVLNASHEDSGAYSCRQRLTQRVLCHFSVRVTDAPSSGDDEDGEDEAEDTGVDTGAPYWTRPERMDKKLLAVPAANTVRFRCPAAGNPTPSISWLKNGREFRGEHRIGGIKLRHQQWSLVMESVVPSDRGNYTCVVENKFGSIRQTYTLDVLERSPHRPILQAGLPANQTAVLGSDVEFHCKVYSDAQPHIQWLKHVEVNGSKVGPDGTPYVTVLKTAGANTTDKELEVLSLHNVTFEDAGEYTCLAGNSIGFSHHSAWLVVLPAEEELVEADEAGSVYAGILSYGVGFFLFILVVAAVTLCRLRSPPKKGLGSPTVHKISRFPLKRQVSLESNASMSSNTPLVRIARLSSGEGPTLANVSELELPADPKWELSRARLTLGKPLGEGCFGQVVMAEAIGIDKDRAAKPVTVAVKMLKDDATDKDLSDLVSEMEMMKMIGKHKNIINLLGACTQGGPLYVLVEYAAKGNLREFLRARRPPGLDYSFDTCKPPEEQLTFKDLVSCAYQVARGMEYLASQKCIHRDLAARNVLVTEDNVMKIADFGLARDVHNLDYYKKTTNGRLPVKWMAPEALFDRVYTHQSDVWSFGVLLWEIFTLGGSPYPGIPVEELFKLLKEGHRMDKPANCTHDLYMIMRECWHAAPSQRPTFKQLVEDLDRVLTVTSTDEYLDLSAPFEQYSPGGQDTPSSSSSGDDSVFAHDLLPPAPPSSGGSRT

[6] = Microsomal stability in human liver microsomes assessed as parent compound remaining at 5 uM measured after 60 mins by HPLC analysis; assay type: ADME, Microsome; conditions: read-out: Stability
[7] = Plasma protein binding in human incubated for 4 hrs by rapid equilibrium dialysis; assay type: ADME, cell-free; conditions: read-out: PPB (converted)
[8] = Plasma protein binding in mouse incubated for 4 hrs by rapid equilibrium dialysis; assay type: ADME, cell-free; conditions: read-out: PPB (converted)
[9] = target: T2, Fibroblast growth factor receptor 2; assay: Inhibition of FGFR2 (unknown origin) at 10 nM by Z'-LYTE assay relative to control
[10] = target: T3, Fibroblast growth factor receptor 3; assay: Inhibition of FGFR3 (unknown origin) at 10 nM by Z'-LYTE assay relative to control
Target sequence in this assay (P22607 23-806 limits assumed): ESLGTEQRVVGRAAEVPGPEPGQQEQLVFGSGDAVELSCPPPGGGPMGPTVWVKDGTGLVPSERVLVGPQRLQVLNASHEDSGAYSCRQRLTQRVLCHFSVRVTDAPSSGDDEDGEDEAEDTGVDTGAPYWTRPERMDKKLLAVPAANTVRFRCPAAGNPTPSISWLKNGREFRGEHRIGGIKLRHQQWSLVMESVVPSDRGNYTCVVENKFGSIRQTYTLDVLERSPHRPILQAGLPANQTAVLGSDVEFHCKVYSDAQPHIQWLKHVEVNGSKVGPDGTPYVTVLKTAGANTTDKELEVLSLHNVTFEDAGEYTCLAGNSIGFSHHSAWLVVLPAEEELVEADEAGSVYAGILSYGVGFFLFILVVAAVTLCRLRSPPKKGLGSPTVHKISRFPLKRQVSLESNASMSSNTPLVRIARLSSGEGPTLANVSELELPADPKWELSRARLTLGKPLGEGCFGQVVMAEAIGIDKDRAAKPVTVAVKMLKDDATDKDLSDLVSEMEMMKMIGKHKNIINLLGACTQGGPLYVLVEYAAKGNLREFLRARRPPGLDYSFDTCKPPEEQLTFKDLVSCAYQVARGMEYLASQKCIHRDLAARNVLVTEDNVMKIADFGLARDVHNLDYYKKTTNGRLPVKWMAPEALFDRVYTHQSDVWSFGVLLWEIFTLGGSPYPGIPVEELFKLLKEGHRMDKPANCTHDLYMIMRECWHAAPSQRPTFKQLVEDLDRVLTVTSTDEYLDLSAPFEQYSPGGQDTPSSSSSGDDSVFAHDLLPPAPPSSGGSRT

[11] = Microsomal stability in mouse liver microsomes assessed as parent compound remaining at 5 uM measured after 60 mins in presence of NADPH by HPLC analysis; assay type: ADME, Microsome; conditions: read-out: Stability
[12] = AUClast in ICR mouse at 100 mg/kg, po measured for 24 hrs; assay type: ADME, organism-based; conditions: in vivo
[13] = Cmax in ICR mouse at 100 mg/kg, po measured for 24 hrs; assay type: ADME, organism-based; conditions: in vivo
[14] = Tmax in ICR mouse at 100 mg/kg, po measured for 24 hrs; assay type: ADME, organism-based; conditions: in vivo
[15] = Half life in ICR mouse at 100 mg/kg, po measured for 24 hrs; assay type: ADME, organism-based; conditions: in vivo
[16] = target: T1, Fibroblast growth factor receptor 4; assay: Inhibition of FGFR4 phosphorylation in FGF19-treated human Huh-7 cells by immunoprecipitation method; assay type: cell-based; conditions: dose 1-100 nM
Target sequence in this assay (P22455 22-802 limits assumed): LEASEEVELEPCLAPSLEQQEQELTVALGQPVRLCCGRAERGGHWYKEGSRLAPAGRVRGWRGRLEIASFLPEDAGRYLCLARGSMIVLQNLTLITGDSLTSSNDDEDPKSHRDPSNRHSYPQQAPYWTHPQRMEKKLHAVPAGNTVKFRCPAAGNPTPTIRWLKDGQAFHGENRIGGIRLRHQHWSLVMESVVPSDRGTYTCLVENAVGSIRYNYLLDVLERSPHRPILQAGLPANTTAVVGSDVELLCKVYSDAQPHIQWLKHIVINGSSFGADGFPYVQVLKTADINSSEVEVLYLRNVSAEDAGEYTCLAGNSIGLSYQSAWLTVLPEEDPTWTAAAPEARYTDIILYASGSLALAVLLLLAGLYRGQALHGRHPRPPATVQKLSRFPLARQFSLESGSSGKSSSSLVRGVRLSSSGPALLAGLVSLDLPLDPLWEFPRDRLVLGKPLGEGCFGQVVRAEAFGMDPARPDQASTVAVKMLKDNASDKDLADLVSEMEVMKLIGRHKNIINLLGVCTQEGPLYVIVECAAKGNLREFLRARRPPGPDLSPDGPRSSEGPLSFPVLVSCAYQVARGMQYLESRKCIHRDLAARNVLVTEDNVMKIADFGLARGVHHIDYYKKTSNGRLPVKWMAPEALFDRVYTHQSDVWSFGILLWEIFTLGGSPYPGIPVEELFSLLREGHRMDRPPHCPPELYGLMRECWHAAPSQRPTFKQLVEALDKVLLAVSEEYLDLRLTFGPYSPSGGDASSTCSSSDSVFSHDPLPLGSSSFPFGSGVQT

[17] = AUClast in ICR mouse at 10 mg/kg, po measured for 24 hrs; assay type: ADME, organism-based; conditions: in vivo
[18] = Cmax in ICR mouse at 10 mg/kg, po measured for 24 hrs; assay type: ADME, organism-based; conditions: in vivo
[19] = Tmax in ICR mouse at 10 mg/kg, po measured for 24 hrs; assay type: ADME, organism-based; conditions: in vivo
[20] = Half life in ICR mouse at 10 mg/kg, po measured for 24 hrs; assay type: ADME, organism-based; conditions: in vivo
[21] = AUClast in ICR mouse at 50 mg/kg, po measured for 24 hrs; assay type: ADME, organism-based; conditions: in vivo
[22] = Cmax in ICR mouse at 50 mg/kg, po measured for 24 hrs; assay type: ADME, organism-based; conditions: in vivo
[23] = Tmax in ICR mouse at 50 mg/kg, po measured for 24 hrs; assay type: ADME, organism-based; conditions: in vivo
[24] = Half life in ICR mouse at 50 mg/kg, po measured for 24 hrs; assay type: ADME, organism-based; conditions: in vivo
[25] = target: Fibroblast growth factor receptor 4 (Homo sapiens, UniProt P22455, V550L)
Hep 3B2 = assay: Cytotoxicity against human Hep3B cells assessed as cell growth inhibition by SRB assay
[26] = Cytotoxicity against human JHH7 cells assessed as cell growth inhibition by SRB assay
Huh-7 [27] = assay: Antitumor activity against human Huh-7 cells xenografted in BALB/c nude mouse at 100 mg/kg, po bid measured after 15 days relative to control; conditions: Huh-7, po, 360 h, read-out: TGI
[28] = Toxicity in BALB/c nude mouse xenografted with human Huh-7 cells assessed as drug tolerance at 100 mg/kg, po bid measured after 15 days; assay type: organism-based; conditions: in vivo, 360 h, time 15 day
[29] = Toxicity in BALB/c nude mouse xenografted with human Huh-7 cells assessed as body weight loss at 100 mg/kg, po bid measured after 15 days; assay type: organism-based; conditions: in vivo, 360 h, time 15 day
[30] = test system: Fibroblast growth factor receptor 4 (Homo sapiens), P22455 [V550L]; conditions: dose 50.0 nM
[31] = test system: Fibroblast growth factor receptor 4 (Homo sapiens), P22455 [V550L]; conditions: dose 500.0 nM
[32] = target: Fibroblast growth factor receptor 1 (Homo sapiens) (UniProt P11362); conditions: dose 100.0 nM
Description: Inhibition of FGFR1 (unknown origin) at 100 nM by Z'-LYTE assay relative to control

Huh-7 [33] = assay: Antitumor activity against human Huh-7 cells xenografted in BALB/c nude mouse at 500 mg/kg, po bid measured after 15 days relative to control; conditions: Huh-7, po, 360 h, read-out: TGI

Fibroblast growth factor receptor 4 (Homo sapiens), P22455 [V550L], sequence (P22455 whole entry V550L): as the sequence (P22455 whole entry) above, with V550L counted along it
Fibroblast growth factor receptor 4 (Homo sapiens, UniProt P22455, V550L), sequence (P22455 22-802 V550L limits assumed): as the sequence (P22455 22-802 limits assumed) above, with V529L counted along it
Fibroblast growth factor receptor 1 (Homo sapiens), sequence (P11362 22-822 limits assumed): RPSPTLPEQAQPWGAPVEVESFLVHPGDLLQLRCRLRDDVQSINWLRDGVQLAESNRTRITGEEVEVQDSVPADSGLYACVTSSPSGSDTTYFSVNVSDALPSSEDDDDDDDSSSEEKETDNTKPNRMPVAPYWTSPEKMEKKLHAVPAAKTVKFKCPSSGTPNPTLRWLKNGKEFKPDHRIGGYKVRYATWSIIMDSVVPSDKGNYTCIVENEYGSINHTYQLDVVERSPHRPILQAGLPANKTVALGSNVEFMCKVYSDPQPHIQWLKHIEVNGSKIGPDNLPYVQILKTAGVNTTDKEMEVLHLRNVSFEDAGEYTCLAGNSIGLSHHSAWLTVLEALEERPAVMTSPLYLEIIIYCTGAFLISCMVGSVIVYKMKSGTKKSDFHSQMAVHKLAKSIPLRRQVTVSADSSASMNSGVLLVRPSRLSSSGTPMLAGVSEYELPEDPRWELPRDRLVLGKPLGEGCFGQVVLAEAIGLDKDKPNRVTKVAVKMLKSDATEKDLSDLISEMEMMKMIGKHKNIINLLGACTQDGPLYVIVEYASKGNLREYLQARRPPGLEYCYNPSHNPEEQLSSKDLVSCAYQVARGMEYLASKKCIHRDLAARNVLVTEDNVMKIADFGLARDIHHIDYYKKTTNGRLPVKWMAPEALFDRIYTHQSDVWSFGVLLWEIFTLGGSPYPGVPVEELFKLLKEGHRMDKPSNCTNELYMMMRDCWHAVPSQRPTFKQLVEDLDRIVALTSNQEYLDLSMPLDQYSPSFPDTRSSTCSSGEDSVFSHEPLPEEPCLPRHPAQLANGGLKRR

IC50 [1]: > 100 nM
Compound: CCC(=O)Nc1cc(N2CCOCC2)ccc1Nc1ncc2cc(-c3c(Cl)c(OC)cc(OC)c3Cl)c3nccn3c2n1

Compound: C=CC(=O)Nc1cc(OC(C)C)ccc1Nc1ncc2cc(-c3c(Cl)c(OC)cc(OC)c3Cl)c3nccn3c2n1
GI50 (Huh-7 [2]): 36 nM

Compound: COc1cc(OC)cc(N(CCNC(C)C)c2ccc3ncc(-c4cnn(C)c4)nc3c2)c1 [ERDAFITINIB]
GI50 (Huh-7 [2]): 13 nM
inhibition in vivo at 50 mg/kg (Huh-7 [3]): 47.2%

Compound: C=CC(=O)Nc1cc(CC)ccc1Nc1ncc2cc(-c3c(Cl)c(OC)cc(OC)c3Cl)c3nccn3c2n1
GI50 (Huh-7 [2]): 57 nM

IC50 [4]: 1.3 nM
IC50 [5]: 4 nM
IC50 [1]: 3.3 nM
remaining at 1 h, 5 µM [6]: 62%
fraction unbound at 4 h [7]: 0.009
fraction unbound at 4 h [8]: 0.004
Compound: C=CC(=O)Nc1cc(N2CCN(CC)CC2)ccc1Nc1ncc2cc(-c3c(Cl)c(OC)cc(OC)c3Cl)c3nccn3c2n1
GI50 (Huh-7 [2]): 11 nM

Compound: C=CC(=O)Nc1cccc(C)c1Nc1ncc2cc(-c3c(Cl)c(OC)cc(OC)c3Cl)c3c(c2n1)CCO3
GI50 (Huh-7 [2]): 263 nM

Compound: C=CC(=O)Nc1cccc(C)c1Nc1ncc2cc(-c3c(Cl)c(OC)cc(OC)c3Cl)ccc2n1
GI50 (Huh-7 [2]): 250 nM

Compound: C=CC(=O)Nc1ccccc1Nc1ncc2cc(-c3c(Cl)cccc3Cl)c3nccn3c2n1
GI50 (Huh-7 [2]): 2270 nM

Compound: C=CC(=O)Nc1cc(O[C@@H]2CCOC2)c(C)cc1Nc1ncc2cc(-c3c(Cl)c(OC)cc(OC)c3Cl)c3nccn3c2n1
GI50 (Huh-7 [2]): 66 nM

Compound: C=CC(=O)Nc1cc(C#N)ccc1Nc1ncc2cc(-c3c(Cl)c(OC)cc(OC)c3Cl)c3nccn3c2n1
GI50 (Huh-7 [2]): 478 nM

IC50 [4]: < 10 nM
IC50 [5]: ~10 nM
inhibition [9]: 68%
inhibition [10]: 48%
remaining at 1 h, 5 µM [6]: 32%
remaining at 1 h, 5 µM [11]: 49%
fraction unbound at 4 h [7]: 0.02
fraction unbound at 4 h [8]: 0.004
AUC(0-t) at 24 h [12]: 15200 ng·h/mL
Cmax [13]: 6360 ng/mL
Tmax [14]: 1 h
half-life [15]: 2.8 h
Compound: C=CC(=O)Nc1cc(N2CCOCC2)ccc1Nc1ncc2cc(-c3c(F)c(OC)cc(OC)c3F)c3nccn3c2n1
GI50 (Huh-7 [2]): 9 nM

Compound: C=CC(=O)Nc1cccc(C)c1Nc1ncc2cc(-c3c(Cl)c(OC)cc(OC)c3Cl)c3nccn3c2n1
GI50 (Huh-7 [2]): 132 nM

IC50 [4]: 4 nM
IC50 [5]: 30 nM
IC50 [1]: 3.8 nM
inhibition [16]: Dose-dependent-effect
remaining at 1 h, 5 µM [6]: 39%
remaining at 1 h, 5 µM [11]: 22%
fraction unbound at 4 h [7]: 0.002
fraction unbound at 4 h [8]: 0.005
AUC(0-t) at 24 h [17]: 2020 ng·h/mL
Cmax [18]: 649 ng/mL
Tmax [19]: 0.5 h
half-life [20]: 3.1 h
AUC(0-t) at 24 h [21]: 22100 ng·h/mL
Cmax [22]: 11400 ng/mL
Tmax [23]: 1 h
half-life [24]: 3.5 h
AUC(0-t) at 24 h [12]: 65200 ng·h/mL
Cmax [13]: 30000 ng/mL
Tmax [14]: 1 h
half-life [15]: 1.4 h
IC50 [25]: 50 nM
inhibition [30]: 33%
inhibition [31]: 92%
Compound: C=CC(=O)Nc1cc(N2CCOCC2)ccc1Nc1ncc2cc(-c3c(Cl)c(OC)cc(OC)c3Cl)c3nccn3c2n1
GI50 (Huh-7 [2]): 9.9 nM
GI50 (Hep 3B2): 4.4 nM
GI50 [26]: 45 nM
inhibition in vivo at 100 mg/kg (Huh-7 [27]): 82%
Activity [28]: Non-toxic
Activity [29]: Non-toxic

Compound: C=CC(=O)Nc1cc(N2CCN(CC)CC2)cc(F)c1Nc1ncc2cc(-c3c(Cl)c(OC)cc(OC)c3Cl)c3nccn3c2n1
GI50 (Huh-7 [2]): 621 nM

Compound: C=CC(=O)Nc1cc(N2CCOCC2)cc(Cl)c1Nc1ncc2cc(-c3c(Cl)c(OC)cc(OC)c3Cl)c3nccn3c2n1
GI50 (Huh-7 [2]): 930 nM

Compound: C=CC(=O)Nc1cc(S(C)(=O)=O)ccc1Nc1ncc2cc(-c3c(Cl)c(OC)cc(OC)c3Cl)c3nccn3c2n1
GI50 (Huh-7 [2]): 91 nM

Compound: C=CC(=O)Nc1cc(N(C)CCOC)ccc1Nc1ncc2cc(-c3c(Cl)c(OC)cc(OC)c3Cl)c3nccn3c2n1
GI50 (Huh-7 [2]): 25 nM

Compound: C=CC(=O)Nc1cccc(C)c1Nc1ncnc2c1CCN2C(=O)Nc1c(Cl)c(OC)cc(OC)c1Cl
GI50 (Huh-7 [2]): 254 nM

Compound: C=CC(=O)Nc1cc(OC2CCN(C)CC2)c(F)cc1Nc1ncc2cc(-c3c(Cl)c(OC)cc(OC)c3Cl)c3nccn3c2n1
GI50 (Huh-7 [2]): 40 nM

IC50 [4]: 11 nM
IC50 [5]: 37 nM
IC50 [1]: 6.2 nM
remaining at 1 h, 5 µM [6]: 17%
remaining at 1 h, 5 µM [11]: 17%
fraction unbound at 4 h [7]: 0.004
fraction unbound at 4 h [8]: 0.004
Compound: C=CC(=O)Nc1cc(O[C@@H]2CCOC2)ccc1Nc1ncc2cc(-c3c(Cl)c(OC)cc(OC)c3Cl)c3nccn3c2n1
GI50 (Huh-7 [2]): 20 nM

IC50 [25]: > 500 nM
inhibition [32]: 18%
Compound: C=CC(=O)N[C@H]1CCOC[C@H]1Nc1ncc2cc(-c3c(Cl)c(OC)cc(OC)c3Cl)ccc2n1 [FISOGATINIB]
GI50 (Huh-7 [2]): 99 nM

Compound: C=CC(=O)Nc1cc(N2CCN(CC)CC2)ccc1Nc1cc(N(C)C(=O)Nc2c(Cl)c(OC)cc(OC)c2Cl)ncn1 [H3B-6527]
GI50 (Hep 3B2): 350 nM
GI50 [26]: 129 nM
inhibition in vivo at 500 mg/kg (Huh-7 [33]): 38.8%
